The results in this text go back to patent US20030162763A1, “Novel cephalosporin compounds and process for preparing the same” (priority 2000, published 2003).

Holding throughout (assay): Minimum Inhibitory Concentration (MIC), agar dilution
Background: Agar dilution tests growth on a series of plates holding different concentrations.

In one experiment the test system is S. aureus 241. In kind it is cell-based, Staphylococcus aureus. Particulars: read-out: Sensitivity test result (MIC), S. aureus 241. As to the method:
(§1) The effectiveness of the compound according to the present invention was determined by obtaining Minimum Inhibitory Concentration (MIC) of the compounds prepared by the above examples (I-1 to I-6) and vancomycin, which is the known compound having a potent activity against gram-positive strains, as the control drug against the standard strains. Specifically, Minimum Inhibitory Concentration was obtained by diluting the test material with a double dilution method, dispersing them in Mueller-Hinton agar medium, inoculating each of the test strain having 10^7 cfu (colony forming unit) per ml in an amount of 2 μl to the medium and then incubating them at 37° C. for 20 hours. From the result of Minimum Inhibitory Concentration test, it can be seen that the compound according to the present invention has a good activity against major pathogenic microorganisms, which cause hospital infection, including MRSA strains.

The test system of a further experiment is S. aureus 77. The class given is cell-based, Staphylococcus aureus. To be noted: for MIC: read-out: Sensitivity test result (MIC), S. aureus 77. As to the method: as §1
In a further experiment the test system is S. epidermidis R005. In kind it is cell-based. Particulars: for MIC: Staphylococcus epidermidis, read-out: Sensitivity test result (MIC), S. epidermidis R005. As to the method: as §1
Experiment [1] concerns Staphylococcus aureus giorgio. The class given is cell-based. To be noted: for MIC: Staphylococcus aureus, read-out: Sensitivity test result (MIC), Staphylococcus aureus giorgio. As to the method:
as §1

The next experiment relates to E. faecalis L239. The class given is cell-based. To be noted: Enterococcus faecalis, read-out: Sensitivity test result (MIC), E. faecalis L239. As to the method: as §1
The subject of a further experiment is E. faecalis EFS004. The class given is cell-based. Particulars: Enterococcus faecalis, read-out: Sensitivity test result (MIC), E. faecalis EFS004. As to the method:
as §1

Experiment [2] deals with Staphylococcus aureus K311. In kind it is cell-based. To be noted: read-out: Sensitivity test result (MIC), Staphylococcus aureus K311. As to the method: as §1
Setting [3] is: Staphylococcus aureus, 241, Table 1, Mueller-Hinton agar, 37° C., 20 hours.
Where [4] appears, read: Staphylococcus aureus, 77, Table 1, Mueller-Hinton agar, 37° C., 20 hours.
Setting [5] is: R005, Table 1, Mueller-Hinton agar, 37° C., 20 hours.
[6] abbreviates: Table 1, Mueller-Hinton agar, 37° C., 20 hours.
Setting [7] is: L239, Table 1, Mueller-Hinton agar, 37° C., 20 hours.
Setting [8] is: Staphylococcus aureus, 77, Table 2, Mueller-Hinton agar, 37° C., 20 hours.
Where [9] appears, read: R005, Table 2, Mueller-Hinton agar, 37° C., 20 hours.
Setting [10] is: Table 2, Mueller-Hinton agar, 37° C., 20 hours.
Setting [11] is: EFS004, Table 2, Mueller-Hinton agar, 37° C., 20 hours.
Setting [12] is: K311, Table 2, Mueller-Hinton agar, 37° C., 20 hours.

Values after ≈ are worked out from the molar mass of the structure shown. Read-outs that look alike come from different tables or passages of the source.

As a reminder, the MIC is the least concentration at which growth counts as inhibited. As to `Nc1nc(O)cc(SC2=C(C(=O)O)N3C(=O)[C@@H](NC(=O)CSc4cc(Cl)ccc4Cl)[C@H]3SC2)n1` [Compound I-2, (6R,7R)-3-[(2-amino-6-hydroxy-4-pyrimidinyl)sulfanyl]-7-({2-[(2,5-dichloro-phenyl)sulfanyl]acetyl}amino)-8-oxo-5-thia-1-azabicyclo[4.2.0]oct-2-ene-2-carboxylic acid], the MIC is 4 µg/mL (≈ 7.14 µM) in the experiment with S. aureus 241 (setting [3]); 0.5 µg/mL (≈ 0.892 µM) in the experiment with S. aureus 77 (setting [4]); 0.5 µg/mL (≈ 0.892 µM) in the experiment with S. epidermidis R005 (setting [5]); 0.031 µg/mL (≈ 0.0553 µM) in experiment [1] (setting [6]); 2 µg/mL (≈ 3.57 µM) in the experiment on E. faecalis L239 (setting [7]).
Regarding `Nc1cc(SC2=C(C(=O)O)N3C(=O)[C@@H](NC(=O)CSc4cc(Cl)nc(Cl)c4)[C@H]3SC2)nc(N)n1` [Compound I-5, (6R,7R)-3-[(2,6-diamino-4-pyrimidinyl)sulfanyl]-7-({2-[(2,6-dichloro-4-pyridinyl)sulfanyl]acetyl}amino)-8-oxo-5-thia-1-azabicyclo[4.2.0]oct-2-ene-2-carboxylic acid], the minimal inhibitory concentration (MIC) stood at 1 µg/mL (≈ 1.78 µM) in the experiment on S. aureus 77 (setting [8]); 1 µg/mL (≈ 1.78 µM) in the experiment on S. epidermidis R005 (setting [9]); 0.063 µg/mL (≈ 0.112 µM) in experiment [1] (setting [10]); 4 µg/mL (≈ 7.14 µM) in the experiment on E. faecalis EFS004 (setting [11]); 1 µg/mL (≈ 1.78 µM) in experiment [2] (setting [12]).
As to `Nc1cc(SC2=C(C(=O)O)N3C(=O)[C@@H](NC(=O)CSc4c(Cl)cccc4Cl)[C@H]3SC2)nc(O)n1` [Compound I-3, (6R,7R)-3-[(6-amino-2-hydroxy-4-pyrimidinyl)sulfanyl]-7-({2-[(2,6-dichloro-phenyl)sulfanyl]acetyl}amino)-8-oxo-5-thia-1-azabicyclo[4.2.0]oct-2-ene-2-carboxylic acid], the MIC in the experiment on S. aureus 241 (setting [3]) came to 4 µg/mL (≈ 7.14 µM); in the experiment on S. aureus 77 (setting [4]), 1 µg/mL (≈ 1.78 µM); in the experiment on S. epidermidis R005 (setting [5]), 0.5 µg/mL (≈ 0.892 µM); in experiment [1] (setting [6]) it was 0.016 µg/mL (≈ 0.0285 µM); in the experiment with E. faecalis L239 (setting [7]), 2 µg/mL (≈ 3.57 µM).
Consider `Nc1ccnc(SC2=C(C(=O)O)N3C(=O)[C@@H](NC(=O)Cc4ccccc4)[C@H]3SC2)n1` [Compound I-4, (6R,7R)-3-[(4-amino-2-pyrimidinyl)sulfanyl]-8-oxo-7-[(phenylacetyl)amino]-5-thia-1-azabicyclo[4.2.0]oct-2-ene-2-carboxylic acid], for which the MIC in the experiment on S. aureus 241 (setting [3]) was greater than 64 µg/mL; in the experiment with S. aureus 77 (setting [4]), 32 µg/mL (≈ 72.2 µM); in the experiment with S. epidermidis R005 (setting [5]) it was 32 µg/mL (≈ 72.2 µM); in experiment [1] (setting [6]) it was 4 µg/mL (≈ 9.02 µM); in the experiment on E. faecalis L239 (setting [7]), greater than 64 µg/mL.
On to `Nc1nc(O)cc(SC2=C(C(=O)O)N3C(=O)[C@@H](NC(=O)CSc4cc(Cl)nc(Cl)c4)[C@H]3SC2)n1` [Compound I-6, (6R,7R)-3-[(2-amino-6-hydroxy-4-pyrimidinyl)sulfanyl]-7-({2-[(2,6-dichloro-4-pyridinyl)sulfanyl]acetyl}amino)-8-oxo-5-thia-1-azabicyclo[4.2.0]oct-2-ene-2-carboxylic acid], for which the MIC in the experiment on S. aureus 77 (setting [8]) was 2 µg/mL (≈ 3.56 µM); in the experiment on S. epidermidis R005 (setting [9]) it was 0.5 µg/mL (≈ 0.891 µM); in experiment [1] (setting [10]), 0.063 µg/mL (≈ 0.112 µM); in the experiment on E. faecalis EFS004 (setting [11]), 2 µg/mL (≈ 3.56 µM); in experiment [2] (setting [12]), 1 µg/mL (≈ 1.78 µM).
As to `Nc1cc(SC2=C(C(=O)O)N3C(=O)[C@@H](NC(=O)CSc4cc(Cl)ccc4Cl)[C@H]3SC2)nc(N)n1` [Compound I-1, (6R,7R)-3-[(2,6-diamino-4-pyrimidinyl)sulfanyl]-7-({2-[(2,5-dichlorophenyl)-sulfanyl]acetyl}amino)-8-oxo-5-thia-1-azabicyclo[4.2.0]oct-2-ene-2-carboxylic acid], the MIC was 2 µg/mL (≈ 3.57 µM) with S. aureus 241 (setting [3]); 0.25 µg/mL (≈ 0.447 µM) in the experiment with S. aureus 77 (setting [4]); 0.25 µg/mL (≈ 0.447 µM) in the experiment on S. epidermidis R005 (setting [5]); less than 0.008 µg/mL in experiment [1] (setting [6]); 2 µg/mL (≈ 3.57 µM) in the experiment with E. faecalis L239 (setting [7]).
Turning to `CN[C@H](CC(C)C)C(=O)N[C@H]1C(=O)N[C@@H](CC(N)=O)C(=O)N[C@H]2C(=O)N[C@H]3C(=O)N[C@H](C(=O)N[C@H](C(=O)O)c4cc(O)cc(O)c4-c4cc3ccc4O)[C@H](O)c3ccc(c(Cl)c3)Oc3cc2cc(c3O[C@@H]2O[C@H](CO)[C@@H](O)[C@H](O)[C@H]2O[C@H]2C[C@](C)(N)[C@H](O)[C@H](C)O2)Oc2ccc(cc2Cl)[C@H]1O` [Vancomycin, vancomycin, reference compound], the MIC in the experiment on S. aureus 241 (Staphylococcus aureus, 241, 20 h) turned out to be 2 µg/mL (≈ 1.38 µM); with S. aureus 77 (Staphylococcus aureus, 77, 20 h), 1 µg/mL (≈ 0.69 µM); in the experiment with S. epidermidis R005 (R005, 20 h) it was 1 µg/mL (≈ 0.69 µM); in experiment [1] (20 h), 1 µg/mL (≈ 0.69 µM); in the experiment with E. faecalis EFS004 (EFS004, 20 h) it was 1 µg/mL (≈ 0.69 µM); in the experiment with E. faecalis L239 (L239, 20 h) it was 2 µg/mL (≈ 1.38 µM). The MIC in experiment [2] (K311, 20 h) was found to be 2 µg/mL (≈ 1.38 µM). Besides, the “Sensitivity test result (MIC), S. aureus 77” value in the experiment on S. aureus 77 (setting [10]) was 1 µg/mL. Besides, in the experiment with S. epidermidis R005 (setting [10]), the “Sensitivity test result (MIC), S. epidermidis R005” value was 1 µg/mL. Moreover, the “Sensitivity test result (MIC), Staphylococcus aureus giorgio” value in experiment [1] (setting [10]) is 1 µg/mL.
